Here are results for seven molecules from patent EP4789666A1, “RNA M6A REGULATOR COMPOSITION, PREPARATION METHOD THEREFOR, AND USE THEREOF” (SHANGHAI MERNA THERAPEUTICS CO. LTD, priority 2023, dated 2025).

In series [1] the test system is rat models with hand-foot skin reaction. The series can be described thus: Rat models with hand-foot skin reaction, topical ointment (incidence rate, histology, immunohistochemistry). Conditions: for Incidence rate, left paw / Incidence rate, right paw: modeling drug alone by gavage once daily 30 days (sorafenib 100, erlotinib 70, afatinib 50, osimertinib 60 mg/kg), no compound in ointment; for successful modeling rates for the hand-foot skin reaction: once daily by gavage at 100, 70, 50 and 60 mg/kg (sorafenib, erlotinib, afatinib, osimertinib), SD rats. The series is classed as in vivo, SD rats. The procedure: After adaptive feeding for one week, SD rats (with a body weight of approximately 200 g) were randomly divided into groups with balanced body weight, with 12 rats in each group. Modeling drugs (including sorafenib, erlotinib, afatinib, and osimertinib) were respectively dissolved in a solution containing 5% of DMSO, 45% of PEG400, and 50% of H2O, and the modeling drugs were diluted to required concentrations and then administered once daily by gavage at doses shown in Table 3. After administration by gavage for 1 hour, 0.05 g of ointments containing different mass proportions of test compounds were evenly applied to left paws of the rats, a blank matrix ointment was applied to right paws of the rats to serve as a self-control, and no ointment was applied to the rats in a blank control group. After drug application, four limbs were continuously immobilized for 2 hours, then wiped with clean water to remove the residual drugs, removed from immobilization, and restored to free movement. The modeling drugs, the blank matrix ointment, and the ointments containing the test compounds were all administered once daily. After continuous administration for 30 days, the rats were euthanized, and paw plantar skin tissues were collected, fixed in 10% neutral formalin, […]. The ointments for the test compounds were prepared by mixing the compounds, white beeswax, white petrolatum, and light liquid paraffin in specific ratios (weight ratios of 3 ointments were respectively 1:18:58:23, 3:18:57:22, and 10:20:40:30). The blank matrix ointment was prepared by mixing white beeswax, white petrolatum, and light liquid paraffin in a specific ratio (weight ratio of 18:60:22).
Tissue staining: After dewaxing and rehydration, the paw plantar skin tissue sections of the above rats were stained in a hematoxylin solution for several minutes, cleaned, and placed in 1% acid alcohol for soaking until the sections faded to light blue-red. After cleaning with running water for 5 minutes, the sections were stained with eosin for 2-3 minutes, cleaned to remove excess dyes, dehydrated, then permeabilized by adding xylene for several minutes, and sealed and fixed with a neutral resin. The stratum corneum was observed under an optical microscope, and the thickness of the epidermal stratum corneum was measured using Dmetrix software.
Immunohistochemical staining: After dewaxing and hydration, the paw plantar skin tissue sections of the above rats were incubated with 3% H2O2 at room temperature for 30 minutes and blocked with 10% goat serum for 30 minutes after antigen retrieval. A KRT1 antibody (Abcam, ab93652) and a Loricrin antibody (Abcam, ab183646) were added dropwise, the sections were incubated overnight at 4°C, and an HRP secondary antibody (ZSGB-BIO, PV-6001) and a DAB kit (ZSG-BIO, ZLI9017) were added for color development. The sections were re-stained with hematoxylin, cleaned, and sealed and fixed with a neutral resin, and the expression amounts of KRT1 and Loricrin were observed under an optical microscope.
An incidence rate calculation method involves a proportion of animals in each group meeting the above criteria for determining successful modeling, that is, incidence rate = (number of successfully modeled rats/total number of rats in the group)*100%. […]

For series [2], the system named is chemotherapeutic drug-induced mouse model with hand-foot syndrome. Description: Chemotherapeutic drug-induced mouse model with hand-foot syndrome. The series is classed as in vivo, ICR mice. Conditions: for degree of swelling of the hind limb toes of the mice: continuous oral administration of modeling drug for 14 days; for epidermal layer and stratum corneum in the skin tissues of the hind limb toes: modeling drug oral for 14 days versus normal control group, pathological staining; for skin of the hind limb toes of the mice (appearance): modeling for 14 days (capecitabine 200 mg/kg, docetaxel 25 mg/kg oral), versus normal control group. From the text: After adaptive feeding for 7 days, SPF-grade ICR mice (male, 5-6 weeks old, with a body weight of approximately 35 g) were randomly divided into groups, including a blank control group (6 mice), a capecitabine modeling group (6 mice), a docetaxel modeling group (6 mice), a capecitabine + compound of formula (I) group (6 mice), a docetaxel + compound of formula (I) group (6 mice), a capecitabine + nicotinamide group (6 mice), and a docetaxel + nicotinamide group (6 mice). The groups were respectively administered corresponding modeling drugs by oral gavage (capecitabine at 200 mg/kg and docetaxel at 25 mg/kg) once daily; and the blank control group was administered an equivalent volume of normal saline. After administration with the chemotherapeutic drugs for 2 weeks, the ointments containing the compound of formula (I) (at a compound content of 3%) used in Example 10 were respectively applied topically in the groups, or nicotinamide was orally administered (100 mg/kg) once daily continuously for 16 days.
(§1) Measurement of the degree of swelling of toes: The degree of swelling of hind limb toes of the mice was measured using a toe swelling tester (KW-7C, Nanjing Calvin Biotechnology Co., Ltd.) before administration with the modeling drugs, after administration with the modeling drugs for 2 weeks, and before sacrifice, respectively. Before measurement, ankle joints of hind feet of the mice were marked at same positions before administration, after administration for 2 weeks, and before sacrifice. During measurement, water was properly located at the same level as the marked positions, and numerical values were recorded after becoming stable.
(§2) Pathological staining of skin tissues: Skin tissue samples were selected from hind limb toes of the mice and placed in 4% paraformaldehyde for fixation at room temperature for 4 hours. Then, the tissues were taken out and rinsed with running water for several hours. The samples were subjected to dehydration treatment with 70%, 80%, and 90% ethanol solutions, followed by treatment with a mixed solution of equal amounts of absolute alcohol and xylene for 15 minutes, and then permeabilized twice with a xylene solution for 15 minutes each time until the samples became transparent. The samples were placed in a mixture of half xylene and half paraffin for soaking for 15 minutes, and then, paraffin I and paraffin II were added for wax penetration for one hour, respectively. After embedding with paraffin, the samples were sectioned, baked, dewaxed, and hydrated. Then, the hydrated sections were placed in a hematoxylin solution (ZSGB-BIO, article No. 23041001) for staining for 3 minutes, and a differentiation solution of hydrochloric acid in ethanol was added for differentiation for 15 seconds. After rinsing with water, a Scott bluing solution (Servicebio, article No. 20230801) was added for bluing for 15 seconds. After rinsing with running water, the sections were stained with an eosin solution (Solarbio, article No. 33535) for 3 minutes, rinsed with running water, dehydrated, permeabilized, sealed, and inspected under a microscope.
(§3) Immunohistochemical staining: After baking, dewaxing, and hydration, paraffin sections of skin tissues of hind limb toes of the mice were subjected to antigen retrieval using a 0.2 M citric acid buffer solution (containing 1.534 g of citric acid, 3.1 g of sodium citrate, and 100 mL of distilled water, pH 4.7). Endogenous […] was removed using 3% hydrogen peroxide (Shandong Annjet High-Tech Disinfection Technology Co., Ltd., article No. 20290902), and the sections were incubated at room temperature for 10 minutes and then fully rinsed with a PBS buffer solution (containing 8 g of NaCl, 0.2 g of KCl, 1.44 g of Na2HPO4, and 1 M HCl, pH 7.4). The sections were permeabilized with 0.5% Triton-X-100 (AmyJet Scientific, article No. A-CSH436-100 mL), respectively permeabilized with mouse anti-IL-1β and rabbit IL-8 for 10 minutes, and not permeabilized with rabbit anti-IL-6. […]

For series [3], the system named is kinase inhibitor-induced mouse model with hand-foot skin reaction. Description: Kinase inhibitor-induced mouse model with hand-foot skin reaction. It counts as in vivo, ICR mice. As to conditions: for degree of swelling of the hind limb toes of the mice: continuous oral administration of modeling drug for 14 days; for epidermal layer and stratum corneum in the skin tissues of the hind limb toes: modeling drug oral for 14 days versus normal control group, pathological staining; for skin of the hind limb toes of the mice (appearance): modeling for 14 days (sorafenib 100 mg/kg, osimertinib 10 mg/kg oral), versus normal control group; for cytokine IL-1β in the skin tissues of the hind limb toes: immunohistochemistry, p<0.05.
Source text: After adaptive feeding for 7 days, SPF-grade ICR mice (male, 5-6 weeks old, with a body weight of approximately 35 g) were randomly divided into groups, including a blank control group (6 mice), a sorafenib modeling group (6 mice), an osimertinib modeling group (6 mice), a sorafenib + compound of formula (I) group (6 mice), an osimertinib + compound of formula (I) group (6 mice), a sorafenib + nicotinamide group (6 mice), and an osimertinib + nicotinamide group (6 mice). The groups were respectively administered corresponding modeling drugs by oral gavage (sorafenib at 100 mg/kg and osimertinib at 10 mg/kg) once daily; and the blank control group was administered an equivalent volume of normal saline. After administration with the chemotherapeutic drugs for 2 weeks, the ointments containing the compound of formula (I) (at a compound content of 3%) used in Example 10 were respectively applied topically in the groups, or nicotinamide was orally administered (100 mg/kg) once daily continuously for 16 days.
as §1, §2, §3

[4] abbreviates: immunohistochemical staining, successfully modeled rats.
The mark [5] stands for this setting: successfully modeled rats versus normal rats, FIG. 8.
The mark [6] stands for this setting: capecitabine and docetaxel models, 3% ointment topical or nicotinamide 100 mg/kg oral, once daily 16 days.
Setting [7] is: sorafenib and osimertinib models, 3% ointment topical or nicotinamide 100 mg/kg oral, once daily 16 days.

As for `CN(C)C/C=C/C(=O)Nc1cc2c(Nc3ccc(F)c(Cl)c3)ncnc2cc1O[C@H]1CCOC1` [Afatinib, afatinib, reference compound], the “KRT1 and Loricrin in tissues” value in series [1] (setting [4]) is “significantly increased”. For the same molecule, in series [1], the “Incidence rate, left paw” value is 8/12 (66.7%); the “Incidence rate, right paw” value is recorded as 8/12 (66.7%); the “successful modeling rates for the hand-foot skin reaction” value is recorded as 66.7%. In addition, the “stratum corneum thickness of the paw plantar skin” value (shortened to “stratum corneum thickness”) in series [1] (setting [5]) is on record as “significantly higher”.
`CCCCCOC(=O)Nc1nc(=O)n([C@@H]2O[C@H](C)[C@@H](O)[C@H]2O)cc1F` [Capecitabine, capecitabine]: the “cytokine IL-8 in the skin tissues of the hind limb toes” value in series [2] (capecitabine oral for 14 days versus normal control group, immunohistochemistry, p<0.05) is “significantly increased”. Also, in series [2], the “degree of swelling of the hind limb toes of the mice” value (from here on “degree”) is given as “swelling of the hind limb toes of the mice was caused”; the “epidermal layer and stratum corneum in the skin tissues of the hind limb toes” value (“epidermal layer and stratum corneum” below) is listed as “significantly thickened”; the “skin of the hind limb toes of the mice (appearance)” value (“skin … (appearance)” below) is “obvious erythema, rhagades, and blisters”.
`CC(=O)O[C@@]12CO[C@@H]1C[C@H](O)[C@@]1(C)C(=O)[C@H](O)C3=C(C)[C@@H](OC(=O)[C@H](O)[C@@H](NC(=O)OC(C)(C)C)c4ccccc4)C[C@@](O)([C@@H](OC(=O)c4ccccc4)[C@H]21)C3(C)C` [Docetaxel, docetaxel]: in series [2], the “degree” value is given as “swelling of the hind limb toes of the mice was caused”; the “epidermal layer and stratum corneum” value is recorded as “significantly thickened”; the “skin … (appearance)” value was “obvious erythema, rhagades, and blisters”. The “cytokine IL-6 in the skin tissues of the hind limb toes” value in series [2] (docetaxel oral for 14 days versus normal control group, immunohistochemistry, p<0.05) is given as “significantly increased”.
Consider `C#Cc1cccc(Nc2ncnc3cc(OCCOC)c(OCCOC)cc23)c1` [Erlotinib, erlotinib, reference compound], for which, in series [1] (rat, in vivo), the “KRT1 and Loricrin in tissues” value is “significantly increased”; the “stratum corneum thickness” value is reported as “significantly higher”.
`NC(=O)c1cccnc1` [Nicotinamide, nicotinamide]: the “swelling of the toes caused by the modeling drugs” value in series [2] (setting [6]) and in series [3] (setting [7]) was “it was not observed that oral administration of the nicotinamide at 100 mg/kg significantly alleviated the swelling” throughout. Moreover, the entries for the “thickening of the epidermal layer and the stratum corneum in the skin tissues” value in series [2] (setting [6]) and in series [3] (setting [7]) were “mildly alleviated” and “didn't significantly alleviate”, respectively. Moreover, the “expression level of cytokine IL-8 in the skin tissues of the hind limb toes” value in series [2] (capecitabine model, 3% ointment topical or nicotinamide 100 mg/kg oral) is reported as “didn't have a significant impact”. For the same molecule, in series [2] (docetaxel model, 3% ointment topical or nicotinamide 100 mg/kg oral), the “expression level of cytokine IL-6 in the skin tissues of the hind limb toes” value was “didn't have a significant impact”. For the same molecule, the “expression level of cytokine IL-1β in the skin tissues of the hind limb toes” value is given as “didn't have a significant impact” in series [3] (osimertinib model, 3% ointment topical or nicotinamide 100 mg/kg oral) and “didn't have a significant impact” in series [3] (sorafenib model, 3% ointment topical or nicotinamide 100 mg/kg oral).
As for `C=CC(=O)Nc1cc(Nc2nccc(-c3cn(C)c4ccccc34)n2)c(OC)cc1N(C)CCN(C)C` [Osimertinib, osimertinib], in series [1] (rat, in vivo), the “KRT1 and Loricrin in tissues” value is “significantly increased”; the “stratum corneum thickness” value is “significantly higher”. Also, in series [3], the “degree” value was “significant swelling”; the “epidermal layer and stratum corneum” value was “significantly thickened”; the “skin … (appearance)” value was “obvious erythema and rhagades”. Also, in series [3] (osimertinib oral for 14 days versus normal control group), the “cytokine IL-1β in the skin tissues of the hind limb toes” value is on record as “significantly increased”.
As for `CNC(=O)c1cc(Oc2ccc(NC(=O)Nc3ccc(Cl)c(C(F)(F)F)c3)cc2)ccn1` [Sorafenib, sorafenib, reference compound], the “KRT1 and Loricrin in tissues” value in series [1] (setting [4]) is recorded as “significantly increased”. In addition, in series [1], the “Incidence rate, left paw” value is 9/12 (75%); the “Incidence rate, right paw” value is listed as 9/12 (75%); the “successful modeling rates for the hand-foot skin reaction” value stood at 75%. Further, in series [1] (setting [5]), the “stratum corneum thickness” value is recorded as “significantly higher”. In series [3], the “degree” value is listed as “significant swelling”; the “epidermal layer and stratum corneum” value is listed as “significantly thickened”; the “skin … (appearance)” value was “obvious erythema and rhagades”. Besides, in series [3] (sorafenib oral for 14 days versus normal control group), the “cytokine IL-1β in the skin tissues of the hind limb toes” value was “significantly increased”.
